From ChEMBL document CHEMBL1201862, “PubChem BioAssay data set” (2004) come the findings set out here.

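Following 48 hours of exposure in 96-well plates, responses at five concentrations were used to interpolate endpoints linearly. Abbreviation: GI50, concentration required for 50% inhibition of growth.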 Activity calls are given as the source filed them. Rule as the data show it: active = GI50 up to about 1.1 µM and inactive = higher. *1 amine or outer side, *2 acyl side, *3 side chain or, on linkers, in order; H or OH if unused. Where a SMILES comes first, the peptide text is derived from it. Bridges are numbered along the chain shown (N, C = ends). Roman numbers before positions name the chains, in order. [ ]: non-standard residue; d: D form. Actinocin(9to1) = Cc1c2oc3c(C)ccc(C(=O)[*:1])c3nc-2c(C(=O)[*:2])c(N)c1=O; NMeV = CN[CH](C(=O)O)C(C)C; Sar = CNCC(=O)O

What all share (assay): DTP human tumour cell line panel, 48 h
Assay [1] deals with NCI-H226.
The subject of assay [2] is RPMI-8226.
Assay [3] concerns OVCAR-5.
Assay [4] relates to UO-31.
Assay [5] has as its system SK-OV-3.
Assay [6] has as its system SF-295.
Assay [7] has as its system SN12C.
For assay [8], the system named is MDA-MB-435.
Assay [9] concerns TK-10.
Assay [10] relates to SK-MEL-5.
The test system of assay [11] is NCI-H23.
The subject of assay [12] is A549.
Assay [13] concerns HCT-116.
Assay [14] relates to OVCAR-3.
Assay [15] relates to OVCAR-8.
Assay [16] concerns MDA-MB-231.
The subject of assay [17] is SF-268.
The subject of assay [18] is HOP-62.
For assay [19], the system named is UACC-257.
The subject of assay [20] is MOLT-4.

One may read the GI50 as the concentration at which growth is held to half of that of the control.

In the case of `Cc1c2oc3c(C)ccc(C(=O)NC4C(=O)NC(Cc5ccccc5)C(=O)N5CCCC5C(=O)N(C)CC(=O)N(C)C(C(C)C)C(=O)OC4C)c3nc-2c(C(=O)NC2C(=O)NC(Cc3ccccc3)C(=O)N3CCCC3C(=O)N(C)CC(=O)N(C)C(C(C)C)C(=O)OC2C)c(N)c1=O` (stereo not given) (I: TFP[Sar][NMeV] / II: TFP[Sar][NMeV]; ester I:1-I:C, II:1-II:C; linker I:N-II:N via Actinocin(9to1); configuration not given here), the concentration for 50% growth inhibition (GI50) in [1] is < 0.001 µM (active); in assay [2] it was < 0.001 µM (active); in [3], 0.00484 µM (active); in [4], 0.00354 µM (active); in [5] it was < 0.001 µM (active); in [6], < 0.001 µM (active). In addition, the concentration for 50% growth inhibition (GI50) is < 0.001 µM (active) in assay [7]; < 0.001 µM (active) in [8]; 0.021 µM (active) in assay [9]; < 0.001 µM (active) in assay [10]; < 0.001 µM (active) in assay [11]; < 0.001 µM (active) in assay [12]. The GI50 in assay [13] was < 0.001 µM (active); in [14], < 0.001 µM (active); in assay [15], < 0.001 µM (active); in assay [16], 0.022 µM (active); in assay [17], < 0.001 µM (active); in [18], 0.0119 µM (active). For the same compound, the concentration for 50% growth inhibition (GI50) in assay [19] and in assay [20] was < 0.001 µM (active) throughout.
With `Cn1c2ccccc2c2c3c(c4c5ccccc5n(C5OC(CO)C(O)C(O)C5O)c4c21)C(=O)OC3=O` (stereo not given), the GI50 in [1], in assay [2], in [3], in assay [4], in [5] and in assay [6] was > 100 µM (inactive) throughout. Besides, the GI50 in assay [7], in assay [8], in assay [9], in assay [10], in assay [11] and in assay [12] was > 100 µM (inactive) throughout. Besides, the GI50 in assay [13], in [14], in [15], in assay [16], in [17] and in assay [18] was > 100 µM (inactive) in each case. Moreover, the GI50 in [19] and in assay [20] was > 100 µM (inactive) each time.
As for `COc1ccc2oc(=O)c(-c3nc4ccccc4s3)cc2c1`, the GI50 in assay [1] was 19.2 µM (inactive); in assay [2], > 62.7 µM (inactive); in assay [3] it was 23 µM (inactive); in assay [4], 13.9 µM (inactive); in [5] it was 13.6 µM (inactive); in assay [6] it was 21.5 µM (inactive). Also, the GI50 in [7] was 33.4 µM (inactive); in assay [8], 12 µM (inactive); in assay [9], 32.2 µM (inactive); in assay [10], 33.5 µM (inactive); in assay [11], 27.5 µM (inactive); in assay [12], 19.9 µM (inactive). Also, the GI50 was 11.6 µM (inactive) in assay [13]; 14.2 µM (inactive) in [14]; 14.9 µM (inactive) in assay [15]; 18.7 µM (inactive) in [16]; 34 µM (inactive) in [17]; 14.2 µM (inactive) in assay [18]. The results for the GI50 in [19] and in assay [20] were > 85.1 µM (inactive) and > 77.6 µM (inactive), respectively.
In the case of `O=c1[nH]nc(Cn2c3ccc(Br)cc3c3nc4ccccc4nc32)n1C1CCCCC1`, the GI50 was 59.4 µM (inactive) in assay [1]; 21.3 µM (inactive) in assay [2]; 34.2 µM (inactive) in assay [3]; > 100 µM (inactive) in [4]; 87.1 µM (inactive) in [5]; 32.7 µM (inactive) in [6]. Further, the GI50 in [7] was > 100 µM (inactive); in assay [8], 28.1 µM (inactive); in assay [9] it was 29.8 µM (inactive); in [10], 36.9 µM (inactive); in [11], 12.9 µM (inactive); in assay [12] it was 43.6 µM (inactive). Also, the GI50 in assay [13] is 70.1 µM (inactive); in [14] it was 23.3 µM (inactive); in assay [15], 12.8 µM (inactive); in assay [16], > 100 µM (inactive); in [17], 40 µM (inactive); in assay [18] it was 17.7 µM (inactive). The GI50 is 26.2 µM (inactive) in assay [19] and < 0.01 µM (active) in assay [20].
As to `COC1CC(OC2CCC3(C)C(=CCC4C3C(OC(C)=O)C(OC(=O)CC(C)C)C3(C)C(C(C)=O)CCC43O)C2)OC(C)C1OC1CC(OC)C(OC2CC(OC)C(OC3OC(C)C(O)C(OC)C3O)C(C)O2)C(C)O1` (stereo not given), the GI50 in assay [1] was 30.5 µM (inactive); in assay [2] it was 17.7 µM (inactive); in assay [3], 86.7 µM (inactive); in assay [4], 26.1 µM (inactive); in assay [5], 51.1 µM (inactive); in [6], 33 µM (inactive). For the same compound, the GI50 in assay [7] is 34.8 µM (inactive); in assay [8], 25.1 µM (inactive); in assay [9] it was 25.9 µM (inactive); in assay [10], 18.7 µM (inactive); in assay [11], 34 µM (inactive); in [12] it was 37.2 µM (inactive). For the same compound, the GI50 in assay [13] was 26.7 µM (inactive); in [14] it was 43.9 µM (inactive); in assay [15], 29.2 µM (inactive); in assay [16] it was 26.5 µM (inactive); in assay [17] it was 54.1 µM (inactive); in assay [18], > 100 µM (inactive). Moreover, the GI50 in [19] was 28.8 µM (inactive); in [20] it was 23.8 µM (inactive).
Take `CCC(C)C1NC(=O)C(NC(=O)C(CC(C)C)N(C)C(=O)[C@@H]2C=CCN2C(=O)[C@H](C)O)C(C)OC(=O)[C@H](Cc2ccc(OC)cc2)N(C)C(=O)[C@@H]2CCCN2C(=O)[C@H](CC(C)C)NC(=O)C(C)C(=O)[C@H](C(C)C)OC(=O)CC1O` (stereo not given in full): the GI50 in assay [1] was < 0.01 µM (active); in [2], 0.00267 µM (active); in assay [3], 0.0137 µM (active); in [4], 0.0138 µM (active); in [5], 0.00239 µM (active); in assay [6] it was 0.00248 µM (active). The GI50 in [7] is 0.00279 µM (active); in assay [8], 0.00277 µM (active); in assay [9], 0.0175 µM (active); in assay [10], 0.000914 µM (active); in [11] it was 0.00184 µM (active); in assay [12] it was 0.004 µM (active). For the same compound, the GI50 in assay [13] was 0.00103 µM (active); in assay [14] it was 0.00393 µM (active); in assay [15] it was 0.00467 µM (active); in assay [16], 0.00608 µM (active); in [17], 0.00243 µM (active); in assay [18], 0.00303 µM (active). The GI50 in [19] is 0.00311 µM (active); in assay [20] it was 0.00147 µM (active).
For the compound `COc1cc(CCC(=O)O)c2cc3ccccc3cc2c1O`, the GI50 in assay [1] is 32.6 µM (inactive); in assay [2], 12.4 µM (inactive); in assay [3], 20.4 µM (inactive); in assay [4], 17.8 µM (inactive); in assay [5], 67.1 µM (inactive); in [6], 20 µM (inactive). In addition, the GI50 is 17.8 µM (inactive) in assay [7]; 15.3 µM (inactive) in [8]; 33.3 µM (inactive) in assay [9]; 15.1 µM (inactive) in assay [10]; 19.1 µM (inactive) in assay [11]; 22.1 µM (inactive) in assay [12]. Besides, the GI50 in assay [13] is 17.2 µM (inactive); in assay [14], 21.4 µM (inactive); in assay [15], 16.3 µM (inactive); in assay [16] it was 18.9 µM (inactive); in assay [17], 19.6 µM (inactive); in assay [18], 17.6 µM (inactive). Besides, the GI50 in [19] is 16.1 µM (inactive); in [20], 8.89 µM (inactive).
`CC(C#N)N(CCc1ccccc1)C(=O)c1ccccc1` (stereo not given): the GI50 in assay [1] was > 100 µM (inactive); in assay [2], > 100 µM (inactive); in [3], > 100 µM (inactive); in [4] it was 84.9 µM (inactive); in [5], > 100 µM (inactive); in assay [6], > 100 µM (inactive). In addition, the GI50 in [7], in assay [8], in [9], in assay [10], in [11] and in assay [12] was > 100 µM (inactive) in each case. In addition, the GI50 in assay [13], in [14], in assay [15], in assay [16], in [17] and in assay [18] was > 100 µM (inactive) throughout. Besides, the figures for the GI50 in assay [19] and in [20] were > 100 µM (inactive) and 47.6 µM (inactive), respectively.
On to `Cc1ccc(S(=O)(=O)n2cncc2CO)cc1`, for which the GI50 in assay [1], in assay [2], in [3], in [4], in assay [5] and in assay [6] was > 100 µM (inactive) each time. Besides, the GI50 in assay [7], in assay [8], in assay [9], in [10], in assay [11] and in assay [12] was > 100 µM (inactive) throughout. Besides, the GI50 in assay [13], in [14], in assay [15], in assay [16], in [17] and in assay [18] was > 100 µM (inactive) throughout. Besides, the GI50 in assay [19] and in assay [20] was > 100 µM (inactive) throughout.
